Results on 45 compounds are retold here after patent US6579556B2, “Ambient stable beverage” (Lipton, division of Conopco, Inc., priority 2000, dated 2003).

Usually MIC50 stands for the lowest concentration that inhibits either 50% of growth or 50% of the strains tested, depending on the study.

In brackets after ≈: the same amount, converted by molar mass. Where two headings read alike, the source gives them in different places.

The test system of this assay is yeast Saccharomyces cerevisiae X2180-1B. In words: Fungicidal activity / MIC at 50° C. versus 30° C., yeast survival in YEPD broth pH 3.4. The assay is classed as cell-based. As to conditions: for Importance: rating as pasteurisation adjunct. Here is the method: In the table the minimum inhibitory concentration (MIC) is given for each compound as well as the molecular weight (M.W.), the logPoct and a rating of its importance. […] The logPoct, that is the logarithm of the partition coefficient of the relevant compound in octanol and thus a measure of its […], was determined using […]™ software from the CHEMOFFICE ULRA ENHANCED 2000™ software package (version 5.5) that is commercially available from CambridgeSoft.
(§1) YEPD contained glucose, 20 g/l, peptone 20 g/l and yeast extract 10 g/l. Rows of 30 ml tubes containing 10 ml YEPD, pH 3.4, were equilibrated at the required temperature for 7 minutes in a water bath, before inoculation with 10^4 cells/ml of the yeast Saccharomyces cerevisiae X2180-1B. Tubes were held at temperature for 10 minutes before being cooled rapidly in cold water for 5 minutes. Tubes were then incubated for 48 hours at 25° C. to allow surviving yeasts to grow out, and form discrete colonies.
as §1, §1, §1

Where [1] appears, read: Saccharomyces cerevisiae, minimum inhibitory concentration, 50° C., read-out: MIC50.
Setting [2] is: Saccharomyces cerevisiae, read-out: MIC50.
[3] abbreviates: Saccharomyces cerevisiae, minimum inhibitory concentration, 50° C., given as ppm, read-out: MIC50.
[4] abbreviates: minimum inhibitory concentration, 50° C.

Regarding `O=C(OCc1ccccc1)c1ccccc1` [Benzyl benzoate], the Importance result was “Mod”. Besides, under setting [1], the MIC stood at 20 mM (≈ 4240 µg/mL).
With `C=CC(C)(O)CCC=C(C)CCC=C(C)C` (centres unmarked) [Nerolidol], the Importance entry was “High (High effects compounds, most preferred, generally showed at least a 5 fold decrease in MIC, minimum inhibitory concentration at 50 °C compared with 30° C.)”. Under setting [1], the MIC came out at 1.5 mM (≈ 334 µg/mL).
For `CCCCCCCCCCCCCCCCO` [Hexadecanol] the same measures were “Low” and 100 mM (≈ 24200 µg/mL).
As for `CCCCCCCCCCCCOC(C)=O` [Lauryl acetate], the Importance result is given as “Mod”. Further, under setting [1], the MIC was 40 mM.
As to `CCCCCCCCCC(=O)OCC` [Ethyl decanoate], the Importance entry was “High (High effects compounds, most preferred, generally showed at least a 5 fold decrease in MIC, minimum inhibitory concentration at 50 °C compared with 30° C.)”. The MIC under setting [1] is 40 mM (≈ 8010 µg/mL).
With `CCCCCCCC(=O)OCCc1ccccc1` [Phenethyl octanoate], the Importance result is listed as “Mod”. In addition, the MIC under setting [1] worked out at 40 mM (≈ 9930 µg/mL).
Consider `CCC(=O)OC/C=C(\C)CCC=C(C)C` [Geranyl propionate], for which the Importance entry was “High (High effects compounds, most preferred, generally showed at least a 5 fold decrease in MIC, minimum inhibitory concentration at 50 °C compared with 30° C.)”. For the same compound, the MIC under setting [1] was 12 mM (≈ 2520 µg/mL).
For the compound `CCCCCCCCOC(=O)CCC` [Octyl butyrate], the Importance result is “High (High effects compounds, most preferred, generally showed at least a 5 fold decrease in MIC, minimum inhibitory concentration at 50 °C compared with 30° C.)”. The MIC under setting [1] was 40 mM (≈ 8010 µg/mL).
As to `CCCCCCCCCCC(=O)OC` [Methyl undecanoate], the Importance result was “High (High effects compounds, most preferred, generally showed at least a 5 fold decrease in MIC, minimum inhibitory concentration at 50 °C compared with 30° C.)”. Also, the MIC under setting [1] was found to be 50 mM (≈ 10000 µg/mL).
On to `CCCCCCCC(=O)OCCCCC` [Amyl octanoate], for which the Importance entry was “Mod”. Also, under setting [1], the MIC turned out to be 60 mM (≈ 12900 µg/mL).
As to `CCCCCCCCCC(=O)OC` [Methyl decanoate], the Importance entry is “High (High effects compounds, most preferred, generally showed at least a 5 fold decrease in MIC, minimum inhibitory concentration at 50 °C compared with 30° C.)”. Moreover, the MIC under setting [1] was determined as 2 mM (≈ 373 µg/mL).
`O=C(c1ccccc1)C(O)c1ccccc1` (centres unmarked) [Benzoin] had an Importance of 10. For the same compound, the MIC under setting [2] stood at 10 mM (≈ 2120 µg/mL).
On to `CCCCCCCCCCOC(=O)CC` [Decyl propionate], for which the Importance result is “High (High effects compounds, most preferred, generally showed at least a 5 fold decrease in MIC, minimum inhibitory concentration at 50 °C compared with 30° C.)”. Moreover, under setting [1], the MIC is 50 mM (≈ 10700 µg/mL).
Taken in the same sequence, the figures for `CCCC(=O)OC/C=C(/C)CCC=C(C)C` [Neryl butyrate] were “Mod” and 50 mM (≈ 11200 µg/mL).
Regarding `CCCCCCCCCCCC(=O)OC` [Methyl laurate], the Importance result is “High (High effects compounds, most preferred, generally showed at least a 5 fold decrease in MIC, minimum inhibitory concentration at 50 °C compared with 30° C.)”. Moreover, the MIC under setting [1] was 40 mM (≈ 8570 µg/mL).
With `CCCCCOC(=O)CCCCC` [Amyl hexanoate], the Importance entry was “High (High effects compounds, most preferred, generally showed at least a 5 fold decrease in MIC, minimum inhibitory concentration at 50 °C compared with 30° C.)”. For the same compound, the MIC under setting [1] stood at 2 mM (≈ 373 µg/mL).
Taken in the same sequence, the figures for `CCCCCCCC(=O)OCCCCCC` [Hexyl octanoate] were “Mod” and 10 mM (≈ 2280 µg/mL).
Taken in the same sequence, the figures for `C=CCCCCCCCCC(=O)OCCCC` [Butyl 10-undecenoate] were “Mod” and 40 mM (≈ 9620 µg/mL).
As for `CCCCCCCCCC(C)=O` [2-Undecanone], the Importance result is “High (High effects compounds, most preferred, generally showed at least a 5 fold decrease in MIC, minimum inhibitory concentration at 50 °C compared with 30° C.)”. For the same compound, the MIC under setting [2] was found to be 1 mM (≈ 170 µg/mL).
Turning to `CCCCCCCCCCCCCCO` [Tetradecanol], the Importance entry was “Mod”. In addition, the MIC under setting [1] was 50 mM (≈ 10700 µg/mL).
Consider `CCCCCCCCCCCCCC(=O)O` [Myristic acid], for which the Importance entry is “High (High effects compounds, most preferred, generally showed at least a 5 fold decrease in MIC, minimum inhibitory concentration at 50 °C compared with 30° C.)”. Under setting [1], the MIC was determined as 50 mM (≈ 11400 µg/mL).
With `CCCCCCCCCCC=CC=O` [2-Tridecenal], the Importance result is “High (High effects compounds, most preferred, generally showed at least a 5 fold decrease in MIC, minimum inhibitory concentration at 50 °C compared with 30° C.)”. Moreover, the MIC50 under setting [3] is less than 9.8 µg/mL. Under setting [1], the MIC is less than 0.05 mM.
As for `CCCCCCCCCC=CC=O` [2-Dodecenal], the Importance entry is “High (High effects compounds, most preferred, generally showed at least a 5 fold decrease in MIC, minimum inhibitory concentration at 50 °C compared with 30° C.)”. Moreover, the MIC50 under setting [3] is less than 9 µg/mL. Moreover, under setting [1], the MIC is less than 0.05 mM.
With `CCCCCCCCCOC(C)=O` [Nonyl acetate], the Importance result was “High (High effects compounds, most preferred, generally showed at least a 5 fold decrease in MIC, minimum inhibitory concentration at 50 °C compared with 30° C.)”. Further, the MIC under setting [1] worked out at 5 mM.
For `CCCCCCCCCCCCCO` [Tridecanol], the Importance result is “High (High effects compounds, most preferred, generally showed at least a 5 fold decrease in MIC, minimum inhibitory concentration at 50 °C compared with 30° C.)”. For the same compound, under setting [1], the MIC stood at 0.05 mM (≈ 10 µg/mL).
As for `C=CC(C)(CCC=C(C)C)OC(C)=O` (centres unmarked) [Linalyl acetate], the Importance entry is “Mod”. Also, the MIC under setting [2] is 10 mM.
For the compound `CCCCCCCCCCCCCC(=O)OC` [Methyl myristate], the Importance entry is “Low”. Moreover, the MIC under setting [1] amounted to 60 mM (≈ 14500 µg/mL).
`CCCCCCCCCCCCC(=O)O` [Tridecanoic acid]: the Importance entry is “High (High effects compounds, most preferred, generally showed at least a 5 fold decrease in MIC, minimum inhibitory concentration at 50 °C compared with 30° C.)”. Besides, the MIC under setting [1] came out at 0.2 mM (≈ 42.9 µg/mL).
Taken in the same sequence, the figures for `CCCCCCCCCCCC(=O)OCC` [Ethyl laurate] were “Mod” and 80 mM (≈ 18300 µg/mL).
Consider w-6-Hexadecalactone, for which the Importance result is reported as “Low”. The compound also gave an MIC50 under setting [4] of 50 mM.
As for `CC=CCCCCCCCC(=O)OC` [Methyl-9-undecenoate], the Importance entry was “High (High effects compounds, most preferred, generally showed at least a 5 fold decrease in MIC, minimum inhibitory concentration at 50 °C compared with 30° C.)”. In addition, the MIC under setting [1] worked out at 40 mM (≈ 7930 µg/mL).
In the case of `CCCCCCOC(=O)CCCCC` [Hexyl hexanoate], the Importance entry is “High (High effects compounds, most preferred, generally showed at least a 5 fold decrease in MIC, minimum inhibitory concentration at 50 °C compared with 30° C.)”. Besides, the MIC under setting [1] came to 30 mM (≈ 6010 µg/mL).
In the case of `CCCCCCCCCCCCC=O` [Tridecanal], the Importance result was “High (High effects compounds, most preferred, generally showed at least a 5 fold decrease in MIC, minimum inhibitory concentration at 50 °C compared with 30° C.)”. Further, the MIC under setting [1] worked out at 5 mM (≈ 992 µg/mL).
As to `C=C(C)C1CC=C(C)C(OC(=O)CC)C1` (centres unmarked) [Carvyl propionate], the Importance entry is reported as “Mod”. Under setting [4], this compound showed an MIC50 of 5 mM.
Taken in the same sequence, the figures for `CCCCCCCCCCCCCCC(=O)O` [Pantadecanoic acid] were “Low” and 80 mM.
Turning to `CCCCCCCCCCCCCC=O` [Myristaldehyde], the Importance entry is reported as “Mod”. Further, under setting [1], the MIC came out at 40 mM (≈ 8500 µg/mL).
Take `CCCCCC(=O)OCCC(C)C` [Isoamyl hexanoate]: the Importance result is “High (High effects compounds, most preferred, generally showed at least a 5 fold decrease in MIC, minimum inhibitory concentration at 50 °C compared with 30° C.)”. Besides, the MIC under setting [1] worked out at 5 mM (≈ 931 µg/mL).
Taken in the same sequence, the figures for `O=C(OCc1ccccc1)c1ccccc1O` [Benzyl salicylate] were “Low” and 50 mM (≈ 11400 µg/mL).
In the case of `CCCCCC(=O)OCCc1ccccc1` [Phenethyl hexanoate], the Importance result was “High (High effects compounds, most preferred, generally showed at least a 5 fold decrease in MIC, minimum inhibitory concentration at 50 °C compared with 30° C.)”. For the same compound, under setting [1], the MIC is 10 mM (≈ 2200 µg/mL).
With `C=CCCCCCCCCC(=O)OCC` [Ethyl 10-undecenoate], the Importance result was “High (High effects compounds, most preferred, generally showed at least a 5 fold decrease in MIC, minimum inhibitory concentration at 50 °C compared with 30° C.)”. For the same compound, the MIC under setting [1] amounted to 50 mM (≈ 10600 µg/mL).
Consider `C=CCOC(=O)CCC1CCCCC1` [Allyl cyclohexanepropionate], for which the Importance result was “High (High effects compounds, most preferred, generally showed at least a 5 fold decrease in MIC, minimum inhibitory concentration at 50 °C compared with 30° C.)”. Further, the MIC under setting [1] came out at 1 mM (≈ 196 µg/mL).
Taken in the same sequence, the figures for `CC(C)CCOC(=O)c1ccccc1O` [Isoamyl salicylate] were “Mod” and 15 mM (≈ 3120 µg/mL).
Taken in the same sequence, the figures for `CCCCCCCCCCCCCCCO` [Pentadecanol] were “Low” and 75 mM (≈ 17100 µg/mL).
As for methyl decenoate, the “fungicidal activity at 30° C.” value (30° C.) was “no fungicidal activity”. For the same compound, the “fungicidal activity when heated to 50° C.” value (50° C.) is given as “significant fungicidal activity”.
Consider `CCCCCCC(=O)OCCCC` [Butyl heptanoate], for which the Importance result was “High (High effects compounds, most preferred, generally showed at least a 5 fold decrease in MIC, minimum inhibitory concentration at 50 °C compared with 30° C.)”. In addition, the MIC under setting [1] stood at 5 mM (≈ 931 µg/mL).
